Results on 1 molecule are retold here after BindingDB's records for doi:10.1021/jm00044a007 (Research Triangle Institute, 1994).

The assay deals with Sodium-dependent dopamine transporter (Rattus norvegicus, UniProt P23977). Briefly: Concentration required to inhibit 50% of radioligand binding ([3H]WIN-35428) to the dopamine (DA) transporter in rat.
Sodium-dependent dopamine transporter, sequence (P23977 whole entry): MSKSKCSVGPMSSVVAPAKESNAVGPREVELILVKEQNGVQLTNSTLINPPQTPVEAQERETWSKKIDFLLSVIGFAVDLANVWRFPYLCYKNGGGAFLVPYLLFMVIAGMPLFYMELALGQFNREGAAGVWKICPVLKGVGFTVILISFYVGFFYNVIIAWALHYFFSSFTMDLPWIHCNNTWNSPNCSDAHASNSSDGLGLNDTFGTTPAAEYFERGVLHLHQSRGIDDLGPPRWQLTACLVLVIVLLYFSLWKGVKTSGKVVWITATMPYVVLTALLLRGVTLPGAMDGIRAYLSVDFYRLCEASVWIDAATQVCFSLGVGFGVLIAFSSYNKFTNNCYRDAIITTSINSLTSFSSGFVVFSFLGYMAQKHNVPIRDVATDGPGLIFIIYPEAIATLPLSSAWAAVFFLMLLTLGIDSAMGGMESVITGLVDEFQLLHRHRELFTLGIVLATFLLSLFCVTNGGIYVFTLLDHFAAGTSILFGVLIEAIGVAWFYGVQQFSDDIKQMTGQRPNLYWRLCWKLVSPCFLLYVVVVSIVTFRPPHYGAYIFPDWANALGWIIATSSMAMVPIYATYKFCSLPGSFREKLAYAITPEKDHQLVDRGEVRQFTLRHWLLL

Regarding `COC(=O)C1C2CCC(C[C@@H]1c1cc[c]([Sn]([CH3])([CH3])[CH3])cc1)N2C` (stereo partly drawn) [(3S,8R)-8-Methyl-3-(4-trimethylstannanyl-phenyl)-8-aza-bicyclo[3.2.1]octane-2-carboxylic acid methyl ester], the IC50 amounted to 144 nM.

The IC50 is the concentration at which inhibition is half-maximal. A higher IC50 goes with a need for much substance.
